Measured values published in patent publication US20230094922A1, “METHODS OF THERAPEUTIC PROGNOSTICATION” (GENETIKAPLUS LTD., priority 2020, published 2023).

Test system: iPSC-derived cortical neurons
Experiment: Pre- and post-synaptic marker (Synapsin, PSD95) puncta and colocalization imaging analysis
Type: cell-based, human
Details: for intact synapses (colocalization of pre- and post-synaptic terminals), treated vs untreated: 7 days after treatment (Bupropion also 3 days)
Description: iPSC differentiation into neurons-iPSCs were seeded at a density of 3×10^6 cells/well on a hESC-qualified Matrigel pre-coated 6-well plate and incubated at 37° C., 5% CO2 overnight. Differentiation was initiated the following day (day 0) after verifying that 100% confluency was reached. Differentiation media was added daily according to the following order: […]7 (day 15 onward) similar to a previously published protocol developed by for rapid differentiation to cortical neurons. The components of the described media, Q1-7, are provided in Appendix 1. Cells were assessed for differentiation efficiency and cell death on a daily basis. On day 9, differentiated neurons were re-plated on either 96-well plates (destined for staining) or 12-well plates (destined for RNA extraction) that were coated with 15 μg/mL Poly-ornithine diluted in PBS (overnight incubation at 37° C.), followed by 1 μg/mL Laminin and 2 μg/mL Fibronectin diluted in PBS (overnight incubation at 37° C.): Neurons were first rinsed with pre-warmed PBS and 1 ml/well of Accutase was added for 35 minutes at 37° C., 5% CO2. DNAse1 (0.5 mg/mL) was then added for 10 additional minutes. 3 ml of pre-warmed Neurobasal media was added to each well and neurons were gently collected using a 5 ml […]. Wells were then verified for the presence of any remaining neurons. Neurons were spun down and resuspended in Q6 media. Neurons were seeded at a density of 150,000 cells/cm^2 placed back at 37° C. Following four hours of incubation, media was changed to Q6 media (150 μl per 96-well and 1 ml per 12-well). […] For dendritic arborization analysis, pre/post-synaptic markers and colocalization analysis; α-Syn, PSD95 and MAP2 primary antibodies were used. Following washes, fluorophore-coupled secondary antibodies were incubated in the blocking solution for 1 hour at room temperature. The cells were counter-stained with 4',6-diamidino-2-phenylindole (DAPI) for nuclei detection for 15 minutes at room temperature followed by washes with PBS. Imaging was performed using Nikon Spinning Disk Confocal microscope. For imaging of pre- and post-synaptic markers, images were acquired with a 100× objective in z-stacks. For dendritic arborization analysis, images were acquired with a 20× objective in z-stacks. For imaging of dendritic spines, during culture treatment described in materials and methods, cells were infected at Day 20 with human syn-GFP or mKate virus and stained for GFP or mKate. Cells were fixed as described at day 35 and stained with antibodies against GFP or mKate respectively. Images were acquired using the Nikon Confocal Alit with a 60× objective and a 2× digital zoom in z-stacks and using the Nikon spinning disk Microscope with a 100× objective in z-stacks. Neuronal and synaptic morphology was assessed using the Neurolucida software, pre- and post-synaptic marker analysis was performed using CellProfiler and total dendritic length was measured using Fiji software. Immunohistochemical examination was carried out on the induced neuronal cells.

CC(NC(C)(C)C)C(=O)c1cccc(Cl)c1 (stereo not drawn) [Bupropion, 3-Chloro-N-tert-butyl-β-keto-α-methylphenethylamin]
density of post-synaptic terminals (PSD95 puncta), responders vs non-responders (after treatment): increase in density
intact synapses, responders vs non-responders (after treatment): increase
size of PSD95 puncta (perimeter), responders vs non-responders (at baseline and after treatment): reduced
levels of pre-synaptic terminals (Synapsin puncta), responders vs non-responders (both before and after treatment): significantly higher
pre-synaptic terminals (Synapsin puncta density), following treatment (both responders and non-responders): increase
Synapsin puncta perimeter size, effect of treatment (cells from non-responders): reduction in puncta perimeter size
Synapsin puncta perimeter size, effect of treatment (cells from responders): increase in puncta perimeter size
intact synapses (colocalization of pre- and post-synaptic terminals), treated vs untreated (neurons from non-responders): increased intact synapses
density of post-synaptic terminals (distance between PSD95 puncta), after vs before treatment (neurons from responders, 7 days after treatment): significantly increased
intact synapses (colocalization of pre- and post-synaptic terminals), treated vs untreated (neurons from responders): increased intact synapses
size of PSD95 puncta (perimeter), effect of treatment (responders and non-responders): no significant effect
